Results taken from PMC6169004, “In vitro pro-inflammatory enzyme inhibition and anti-oxidant potential of selected Sri Lankan medicinal plants” (BMC Complementary and Alternative Medicine, 2018).

Biological target: T1, A5-LOX (soybean); arachidonate-5-lipoxygenase
T1 construct: gene LOX1.1; most likely lipoxygenase-1
Assay: spectrophotometric, absorbance at […] nm
Format: biochemical, Glycine max
Details: linoleic acid substrate ([…] μL of […]), sodium phosphate pH […] °C, […] min preincubation

O=c1cc(-c2ccccc2)oc2cc(O)c(O)c(O)c12 [Baicalein]
Anti-A5-LOX activity IC50 (μg mL^- 1): 1.76 ± 0.15 μg mL^− 1
